Read-outs that look alike come from different tables or passages of the source.
Experiments:
Experiment in all cases: MIC, broth microdilution (CLSI), substance alone or ATB combined with compound at 4 or 8 μg/mL
PAE 105250 = assay type: cell-based, P. aeruginosa; conditions: PAE 105250
In short: (§1)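 Antibiotic MICs were determined in presence of fixed compound at 4 or 8 μg/mL, and compound MICs alone, by visual growth inhibition. Inoculum 5·10^5 CFU/mL in ca-MHB, incubated 35 °C for 16-20 h per CLSI-M7-A7. Glucose-6-phosphate (25 μg/ml) added when fosfomycin was tested.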

PAE UFR90 = assay type: cell-based, P. aeruginosa; conditions: PAE UFR90
In short: as §1

PAE UFR48 = assay type: cell-based, P. aeruginosa; conditions: PAE UFR48
In short: as §1

SAU 29213 = assay type: cell-based, S. aureus; conditions: SAU 29213
In short: as §1

SPN 49619 = assay type: cell-based, S. pneumoniae; conditions: SPN 49619
In short: as §1

ECL P99 = assay type: cell-based, E. cloacae; conditions: for MIC: Enterobacter cloacae
In short: as §1

[1] = Pseudomonas aeruginosa, antibiotic alone, read-out: MIC ATB alone

C=CC1=C(C(=O)O)N2C(=O)[C@@H](NC(=O)/C(=N\OCC(=O)O)c3csc(N)n3)[C@H]2SC1 [FIX, Cefixime, reference compound]
0.063 µg/mL: MIC ATB combined with Example 1 @8 μg/ml (ECL P99; ECL P99, with Example 1 @8 μg/ml) | MIC ATB combined with Example 1 @8 μg/ml (ECL P99; ECL P99, with Example 1 at 8 μg/ml)
<0.031 µg/mL: MIC ATB combined with Example 1 @8 μg/ml (PAE UFR90; with Example 1 @8 μg/ml) | MIC ATB combined with Example 1 @8 μg/ml (PAE UFR90; with Example 1 at 8 μg/ml) | MIC ATB combined with Example 1 @8 μg/ml (PAE UFR48; with Example 1 @8 μg/ml) | MIC ATB combined with Example 1 @8 μg/ml (PAE UFR48; with Example 1 at 8 μg/ml) | MIC ATB combined with Example 12 @8 μg/ml (SAU 29213; with Example 12 at 8 μg/ml) | MIC ATB combined with Example 14 @8 μg/ml (SAU 29213; with Example 14 at 8 μg/ml) | MIC ATB combined with Example 15 @4 μgml (SAU 29213; with Example 15 at 4 μg/ml) | MIC ATB combined with Example 16 @4 μg/ml (SAU 29213; with Example 16 at 4 μg/ml) | MIC ATB combined with Example 12 @8 μg/ml (SPN 49619; with Example 12 at 8 μg/ml) | MIC ATB combined with Example 14 @8 μg/ml (SPN 49619; with Example 14 at 8 μg/ml) | MIC ATB combined with Example 16 @4 μg/ml (SPN 49619; with Example 16 at 4 μg/ml) | MIC ATB combined with Example 9 @4 μg/ml (ECL P99; ECL P99, with Example 9 @4 μg/ml) | MIC ATB combined with Example 9 @4 μg/ml (ECL P99; ECL P99, with Example 9 at 4 μg/ml) | MIC ATB combined with Example 11 @8 μg/ml (ECL P99; ECL P99, with Example 11 at 8 μg/ml) | MIC ATB combined with Example 12 @8 μg/ml (ECL P99; ECL P99, with Example 12 at 8 μg/ml) | MIC ATB combined with Example 14 @8 μg/ml (ECL P99; ECL P99, with Example 14 at 8 μg/ml) | MIC ATB combined with Example 15 @4 μgml (ECL P99; ECL P99, with Example 15 at 4 μg/ml) | MIC ATB combined with Example 16 @4 μg/ml (ECL P99; ECL P99, with Example 16 at 4 μg/ml)
> 32 µg/mL: MIC (PAE UFR90; [1])
8 µg/mL: MIC ATB combined with Example 7 @8 μgml (SAU 29213; with Example 7 at 8 μg/ml) | MIC ATB combined with Example 13 @8 μg/ml (ECL P99; ECL P99, with Example 13 at 8 μg/ml)
0.125 µg/mL: MIC ATB combined with Example 11 @8 μg/ml (SAU 29213; with Example 11 at 8 μg/ml)
0.25 µg/mL: MIC ATB combined with Example 9 @4 μg/ml (SPN 49619; with Example 9 @4 μg/ml) | MIC ATB combined with Example 9 @4 μg/ml (SPN 49619; with Example 9 at 4 μg/ml) | MIC ATB combined with Example 11 @8 μg/ml (SPN 49619; with Example 11 at 8 μg/ml) | MIC ATB combined with Example 15 @4 μgml (SPN 49619; with Example 15 at 4 μg/ml)
4 µg/mL: MIC ATB combined with Example 13 @8 μg/ml (SAU 29213; with Example 13 at 8 μg/ml)
0.5 µg/mL: MIC ATB combined with Example 13 @8 μg/ml (SPN 49619; with Example 13 at 8 μg/ml)
16 µg/mL: MIC ATB combined with Example 1 @8 μg/ml (SAU 29213; with Example 1 @8 μg/ml) | MIC ATB combined with Example 1 @8 μg/ml (SAU 29213; with Example 1 at 8 μg/ml) | MIC (SAU 29213; Staphylococcus aureus, antibiotic alone, read-out: MIC ATB alone) | MIC ATB combined with Example 7 @8 μgml (ECL P99; ECL P99, with Example 7 at 8 μg/ml)
> 128 µg/mL: MIC (ECL P99)
> 512 µg/mL: MIC (PAE 105250; [1]) | MIC (PAE UFR48; [1]) | MIC (ECL P99; ECL P99, antibiotic alone, read-out: MIC ATB alone)
1 µg/mL: MIC ATB combined with Example 1 @8 μg/ml (SPN 49619; with Example 1 @8 μg/ml) | MIC ATB combined with Example 1 @8 μg/ml (SPN 49619; with Example 1 at 8 μg/ml) | MIC ATB combined with Example 7 @8 μgml (SPN 49619; with Example 7 at 8 μg/ml) | MIC (SPN 49619; Streptococcus pneumoniae, antibiotic alone, read-out: MIC ATB alone)
<=0.031 μg/mL: MIC ATB combined with Example 9 @4 μg/ml (SAU 29213; with Example 9 @4 μg/ml) | MIC ATB combined with Example 9 @4 μg/ml (SAU 29213; with Example 9 at 4 μg/ml)
>32 µg/mL: MIC ATB combined with Example 9 @4 μg/ml (PAE 105250; with Example 9 at 4 μg/ml) | MIC ATB combined with Example 11 @8 μg/ml (PAE 105250; with Example 11 at 8 μg/ml) | MIC ATB combined with Example 12 @8 μg/ml (PAE 105250; with Example 12 at 8 μg/ml) | MIC ATB combined with Example 13 @8 μg/ml (PAE 105250; with Example 13 at 8 μg/ml) | MIC ATB combined with Example 14 @8 μg/ml (PAE 105250; with Example 14 at 8 μg/ml) | MIC ATB combined with Example 15 @4 μgml (PAE 105250; with Example 15 at 4 μg/ml) | MIC ATB combined with Example 16 @4 μg/ml (PAE 105250; with Example 16 at 4 μg/ml) | MIC ATB combined with Example 7 @8 μgml (PAE UFR90; with Example 7 at 8 μg/ml) | MIC ATB combined with Example 9 @4 μg/ml (PAE UFR90; with Example 9 @4 μg/ml) | MIC ATB combined with Example 9 @4 μg/ml (PAE UFR90; with Example 9 at 4 μg/ml) | MIC ATB combined with Example 11 @8 μg/ml (PAE UFR90; with Example 11 at 8 μg/ml) | MIC ATB combined with Example 12 @8 μg/ml (PAE UFR90; with Example 12 at 8 μg/ml) | MIC ATB combined with Example 13 @8 μg/ml (PAE UFR90; with Example 13 at 8 μg/ml) | MIC ATB combined with Example 14 @8 μg/ml (PAE UFR90; with Example 14 at 8 μg/ml) | MIC ATB combined with Example 15 @4 μgml (PAE UFR90; with Example 15 at 4 μg/ml) | MIC ATB combined with Example 16 @4 μg/ml (PAE UFR90; with Example 16 at 4 μg/ml) | MIC ATB combined with Example 7 @8 μgml (PAE UFR48; with Example 7 at 8 μg/ml) | MIC ATB combined with Example 9 @4 μg/ml (PAE UFR48; with Example 9 @4 μg/ml) | MIC ATB combined with Example 9 @4 μg/ml (PAE UFR48; with Example 9 at 4 μg/ml) | MIC ATB combined with Example 11 @8 μg/ml (PAE UFR48; with Example 11 at 8 μg/ml) | MIC ATB combined with Example 12 @8 μg/ml (PAE UFR48; with Example 12 at 8 μg/ml) | MIC ATB combined with Example 13 @8 μg/ml (PAE UFR48; with Example 13 at 8 μg/ml) | MIC ATB combined with Example 14 @8 μg/ml (PAE UFR48; with Example 14 at 8 μg/ml) | MIC ATB combined with Example 15 @4 μgml (PAE UFR48; with Example 15 at 4 μg/ml) | MIC ATB combined with Example 16 @4 μg/ml (PAE UFR48; with Example 16 at 4 μg/ml)
